Experimental data: PMC11093223, “Cargo selective vesicle tethering: The structural basis for binding of specific cargo proteins by the Golgi tether component TBC1D23” (Science Advances, 2024)
Entries after “also recorded” stand apart in the source; their conditions may differ. Like-named read-outs stand apart in the source and are kept apart here. Residues, ends and D or L forms follow the SMILES beside them.

Assays:
[1] = molecular target: T1, TBC1D23 C-terminal domain (Mus musculus, UniProt Q8K0F1); test: ITC of cargo and mutant syntaxin-16 peptides binding to wild-type TBC1D23 C-terminal domain; details: for Kd / KD (μM): 20°C; for KD (μM): peptide (0.8-5 mM) titrated into 100 μM domain, 100 mM NaCl, 100 mM tris pH 7.4, 1 mM TCEP, mean of three independent runs
T1 construct: TBC1D23 C-terminal domains were gel-filtered into buffer; GST (N, cleaved yes); made in house; host or cells: E. coli BL21 pLysS
Protocol: (§1) Experiments were performed using a Nano ITC machine from TA Instruments. TBC1D23 C-terminal domains were gel-filtered into buffer composed of 100 mM NaCl, 100 mM tris (pH 7.4), and 1 mM tris(2-carboxyethyl)phosphine (TCEP). Peptides were dissolved in the same batch of buffer. Both the wild-type and mutant C-terminal domains were concentrated to 100 μM (1.4 mg/ml) with peptide concentration varying between 0.8 and 5 mM (depending on the peptide). Peptides were titrated into TBC1D23 C-terminal domains with 20 injections of 2.4 μl each separated by 300-s intervals. Experiments were conducted at 20°C. […] Data were exported to GraphPad Prism for figure generation.
(§2) Recombinant proteins were expressed in BL21 plyS E. coli grown in shaking 2× TY medium at 37°C. Expression was induced with 0.2 mM IPTG, and cells were grown overnight at 22°C. Cells were resuspended in buffer A [250 mM NaCl, 20 mM tris (pH 7.4), and 1 mM DTT] supplemented with 4-benzenesulfonyl fluoride hydrochloride, MnCl2 and deoxyribonuclease I. Cell pellets were lysed using a cell disruptor (Constant Systems) before clarification by ultracentrifugation (104,350 relative centrifugal force) for 45 min. The supernatant was batch bound to glutathione-Sepharose resin (Cytiva) in buffer A before washing with 400 ml of buffer A and overnight cleavage of the GST-tag with thrombin at room temperature. The resultant flow through was concentrated for gel filtration Superdex 200 column (GE Healthcare) into either buffer A for crystallization or into ITC buffer [100 mM NaCl, 100 mM tris (pH 7.4), and 1 mM TCEP].

[2] = molecular target: T2, TBC1D23 C-terminal domain V626D (Mus musculus, UniProt Q8K0F1, V626D); test: ITC of syntaxin-16 peptide binding to TBC1D23 C-terminal domain mutant V626D
T2 construct: Both the wild-type and mutant C-terminal domains were concentrated to 100 μM; GST (N, cleaved yes); made in house; host or cells: E. coli BL21 pLysS
Protocol: as §1
as §2, with “The resultant flow through was concentrated for gel filtration Superdex 200 column (GE Healthcare) into either buffer A for crystallization or into ITC buffer [100 mM NaCl, 100 mM tris (pH 7.4), and 1 mM TCEP].” left out

[3] = molecular target: T3, TBC1D23 C-terminal domain I675W (Mus musculus, UniProt Q8K0F1, I675W); test: ITC of syntaxin-16 peptide binding to TBC1D23 C-terminal domain mutant I675W
T3 construct: GST (N, cleaved yes); made in house; host or cells: E. coli BL21 pLysS
Protocol: as §1
as §2, with “The resultant flow through was concentrated for gel filtration Superdex 200 column (GE Healthcare) into either buffer A for crystallization or into ITC buffer [100 mM NaCl, 100 mM tris (pH 7.4), and 1 mM TCEP].” left out

[4] = molecular target: T4, TBC1D23 C-terminal domain K672A (Mus musculus, UniProt Q8K0F1, K672A); test: ITC of syntaxin-16 peptide binding to TBC1D23 C-terminal domain mutant K672A; details: mean of three runs, read-out: Mean affinity
T4 construct: Both the wild-type and mutant C-terminal domains were concentrated to 100 μM; GST (N, cleaved yes); made in house; host or cells: E. coli BL21 pLysS
Protocol: as §1
as §2, with “The resultant flow through was concentrated for gel filtration Superdex 200 column (GE Healthcare) into either buffer A for crystallization or into ITC buffer [100 mM NaCl, 100 mM tris (pH 7.4), and 1 mM TCEP].” left out

[5] = pH 7.4, mean of three runs, read-out: Mean affinity
[6] = pH 7.4, bound given for peptides without measurable binding, read-out: Affinity
[7] = bound, no measurable binding, read-out: Affinity

T1 sequence (Q8K0F1 559-684 limits assumed): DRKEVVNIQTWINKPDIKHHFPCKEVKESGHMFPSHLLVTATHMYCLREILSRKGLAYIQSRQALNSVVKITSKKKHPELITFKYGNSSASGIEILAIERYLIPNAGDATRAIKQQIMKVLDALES
T2 sequence (Q8K0F1 559-684 V626D limits assumed): as the sequence (Q8K0F1 559-684 limits assumed) above, with V68D counted along it
T3 sequence (Q8K0F1 559-684 I675W limits assumed): as the sequence (Q8K0F1 559-684 limits assumed) above, with I117W counted along it
T4 sequence (Q8K0F1 559-684 K672A limits assumed): as the sequence (Q8K0F1 559-684 limits assumed) above, with K114A counted along it

Compound | Kd [1, 5] | Kd [1, 6] | KD (μM) [1] | other results
CC(C)[C@H](NC(=O)[C@@H](NC(=O)[C@H](Cc1ccccc1)NC(=O)[C@H](CC(=O)O)NC(=O)CNC(=O)[C@H](CC(=O)O)NC(=O)[C@H](CCC(=O)O)NC(=O)[C@H](CC(N)=O)NC(=O)[C@H](CCC(=O)O)NC(=O)[C@H](CCC(=O)O)NC(=O)[C@@H](N)CC(=O)O)[C@@H](C)O)C(=O)N[C@@H](Cc1ccc(O)cc1)C(=O)N[C@@H](CCC(=O)O)C(=O)N[C@@H](CS)C(=O)O [NPDC1_TVY] (H-DEENEDGDFTVYEC-OH) | 2.91 µM |  |  | 
CSCC[C@H](NC(=O)[C@H](CC(C)C)NC(=O)[C@H](Cc1c[nH]c2ccccc12)NC(=O)[C@H](CCC(=O)O)NC(=O)[C@@H](NC(=O)[C@H](CCC(=O)O)NC(=O)[C@H](CC(N)=O)NC(=O)[C@H](CCC(=O)O)NC(=O)[C@H](CC(=O)O)NC(=O)[C@@H](NC(=O)[C@H](CCC(=O)O)NC(=O)[C@H](CCC(=O)O)NC(=O)[C@@H](N)CCC(=O)O)[C@@H](C)O)[C@@H](C)O)C(=O)O [CIMPR_WLM] (H-EEETDENETEWLM-OH; N-terminus and C-terminus assumed) |  | > 200 µM | no binding | 
CC(C)[C@H](NC(=O)[C@@H](NC(=O)[C@H](CCC(=O)O)NC(=O)[C@H](CCC(=O)O)NC(=O)[C@H](CC(=O)O)NC(=O)[C@H](CO)NC(=O)[C@@H](N)CC(=O)O)[C@@H](C)O)C(=O)N[C@@H](Cc1ccccc1)C(=O)N[C@@H](CCC(=O)O)C(=O)N[C@@H](CO)C(=O)O [FAM174C_TVF] (H-DSDEETVFES-OH) | 15.7 µM |  |  | 
CC[C@H](C)[C@H](NC(=O)[C@@H](NC(=O)[C@H](CC(=O)O)NC(=O)[C@H](CCC(N)=O)NC(=O)[C@H](CC(=O)O)NC(=O)[C@H](CO)NC(=O)[C@H](CC(=O)O)NC(=O)[C@H](Cc1ccccc1)NC(=O)[C@H](CCC(=O)O)NC(=O)[C@H](CO)NC(=O)[C@@H](N)CCC(=O)O)[C@@H](C)O)C(=O)N[C@@H](Cc1ccccc1)C(=O)O [KIAA0319_TIF] (H-ESEFDSDQDTIF-OH) | 35.2 µM |  |  | 
CC(C)C[C@H](NC(=O)[C@@H](NC(=O)[C@H](CCC(=O)O)NC(=O)[C@H](CCC(=O)O)NC(=O)[C@@H](N)CCC(=O)O)[C@@H](C)O)C(=O)N[C@@H](Cc1ccc(O)cc1)C(=O)N[C@@H](CO)C(=O)N[C@@H](CO)C(=O)N[C@@H](CCCCN)C(=O)N[C@@H](Cc1c[nH]cn1)C(=O)O [CPD_TLY] (H-EEETLYSSKH-OH) | 10.6 µM |  |  | 
CC(C)C[C@H](NC(=O)[C@@H](NC(=O)[C@H](CC(N)=O)NC(=O)[C@H](C)NC(=O)[C@H](C)N)[C@@H](C)O)C(=O)N[C@@H](Cc1ccc(O)cc1)C(=O)N[C@@H](Cc1c[nH]cn1)C(=O)N[C@@H](CCCNC(=N)N)C(=O)NCC(=O)N[C@@H](Cc1ccccc1)C(=O)N[C@H](C(=O)N[C@@H](CCC(=O)O)C(=O)N[C@@H](CC(=O)O)C(=O)O)[C@@H](C)O [STX16_DDAA] (H-AANTLYHRGFTED-OH; N-terminus and C-terminus assumed) |  | > 200 µM |  | 
CC(C)C[C@H](NC(=O)[C@@H](NC(=O)[C@H](CC(N)=O)NC(=O)[C@H](CC(=O)O)NC(=O)[C@@H](N)CC(=O)O)[C@@H](C)O)C(=O)N[C@@H](Cc1ccc(O)cc1)C(=O)N[C@@H](Cc1c[nH]cn1)C(=O)N[C@@H](CCCNC(=N)N)C(=O)NCC(=O)N[C@@H](Cc1ccccc1)C(=O)N[C@H](C(=O)N[C@@H](CCC(=O)O)C(=O)N[C@@H](CC(=O)O)C(=O)O)[C@@H](C)O [STX16_TLY] (H-DDNTLYHRGFTED-OH) |  |  |  | KD (μM) ([2]; 20°C, pH 7.4, figure and text, listed as syntaxin-16 peptide): abolishes peptide binding; also recorded: No binding; Kd [2, 7]: > 200 µM; KD (μM) ([3]; 20°C, pH 7.4, figure and text): No binding; Kd [3, 7]: > 200 µM; Kd [4]: 27.6 µM
CC(C)C[C@H](NC(=O)[C@H](C)NC(=O)[C@H](CC(N)=O)NC(=O)[C@H](CC(=O)O)NC(=O)[C@@H](N)CC(=O)O)C(=O)N[C@@H](Cc1ccc(O)cc1)C(=O)N[C@@H](Cc1c[nH]cn1)C(=O)N[C@@H](CCCNC(=N)N)C(=O)NCC(=O)N[C@@H](Cc1ccccc1)C(=O)N[C@H](C(=O)N[C@@H](CCC(=O)O)C(=O)N[C@@H](CC(=O)O)C(=O)O)[C@@H](C)O [STX16_TtoA] (H-DDNALYHRGFTED-OH; N-terminus and C-terminus assumed) |  | > 200 µM | No binding | 
CC(C)[C@H](NC(=O)[C@@H](NC(=O)[C@H](CO)NC(=O)[C@H](Cc1ccc(O)cc1)NC(=O)[C@@H](NC(=O)[C@@H](NC(=O)[C@H](CC(N)=O)NC(=O)[C@H](C)NC(=O)[C@@H]1CCCN1C(=O)[C@H](CC(=O)O)NC(=O)[C@@H](N)CCC(=O)O)[C@@H](C)O)C(C)C)[C@@H](C)O)C(=O)N[C@@H](CCC(=O)O)C(=O)O [SLAMF7_TVY] (H-EDPANTVYSTVE-OH; N-terminus and C-terminus assumed) |  | > 200 µM | no binding | 

Continued, in another order:

Kd [1, 5] | Kd [1, 6] | KD (μM) [1] | Compound | other results
5.64 µM |  |  | CC(C)C[C@H](NC(=O)[C@@H](NC(=O)[C@H](CC(N)=O)NC(=O)[C@H](CC(=O)O)NC(=O)[C@@H](N)CC(=O)O)[C@@H](C)O)C(=O)N[C@@H](Cc1c[nH]c2ccccc12)C(=O)N[C@@H](Cc1c[nH]cn1)C(=O)N[C@@H](CCCNC(=N)N)C(=O)NCC(=O)N[C@@H](Cc1ccccc1)C(=O)N[C@H](C(=O)N[C@@H](CCC(=O)O)C(=O)N[C@@H](CC(=O)O)C(=O)O)[C@@H](C)O [STX16_YtoW] (H-DDNTLWHRGFTED-OH) | 
 | > 200 µM | No binding | CC(C)C[C@H](NC(=O)[C@@H](NC(=O)[C@H](CC(N)=O)NC(=O)[C@H](CC(=O)O)NC(=O)[C@@H](N)CC(=O)O)[C@@H](C)O)C(=O)N[C@@H](CO)C(=O)N[C@@H](Cc1c[nH]cn1)C(=O)N[C@@H](CCCNC(=N)N)C(=O)NCC(=O)N[C@@H](Cc1ccccc1)C(=O)N[C@H](C(=O)N[C@@H](CCC(=O)O)C(=O)N[C@@H](CC(=O)O)C(=O)O)[C@@H](C)O [STX16_YtoS] (H-DDNTLSHRGFTED-OH; N-terminus and C-terminus assumed) | 
 | > 200 µM |  | C[C@H](NC(=O)[C@@H](NC(=O)[C@H](CC(N)=O)NC(=O)[C@H](CC(=O)O)NC(=O)[C@@H](N)CC(=O)O)[C@@H](C)O)C(=O)N[C@@H](Cc1ccc(O)cc1)C(=O)N[C@@H](Cc1c[nH]cn1)C(=O)N[C@@H](CCCNC(=N)N)C(=O)NCC(=O)N[C@@H](Cc1ccccc1)C(=O)N[C@H](C(=O)N[C@@H](CCC(=O)O)C(=O)N[C@@H](CC(=O)O)C(=O)O)[C@@H](C)O [STX16_LtoA] (H-DDNTAYHRGFTED-OH; N-terminus and C-terminus assumed) | reduction of binding relative to wild-type syntaxin-16 peptide [1]: > 100 fold
151 µM |  |  | C[C@@H](O)[C@H](NC(=O)[C@H](Cc1ccccc1)NC(=O)CNC(=O)[C@H](CCCNC(=N)N)NC(=O)[C@H](Cc1c[nH]cn1)NC(=O)[C@H](Cc1ccc(O)cc1)NC(=O)[C@H](Cc1ccccc1)NC(=O)[C@@H](NC(=O)[C@H](CC(N)=O)NC(=O)[C@H](CC(=O)O)NC(=O)[C@@H](N)CC(=O)O)[C@@H](C)O)C(=O)N[C@@H](CCC(=O)O)C(=O)N[C@@H](CC(=O)O)C(=O)O [STX16_LtoF] (H-DDNTFYHRGFTED-OH) | 
 | > 200 µM | No binding | C[C@@H](O)[C@H](NC(=O)[C@H](Cc1ccccc1)NC(=O)CNC(=O)[C@H](CCCNC(=N)N)NC(=O)[C@H](Cc1c[nH]cn1)NC(=O)[C@H](Cc1ccc(O)cc1)NC(=O)[C@H](CO)NC(=O)[C@@H](NC(=O)[C@H](CC(N)=O)NC(=O)[C@H](CC(=O)O)NC(=O)[C@@H](N)CC(=O)O)[C@@H](C)O)C(=O)N[C@@H](CCC(=O)O)C(=O)N[C@@H](CC(=O)O)C(=O)O [STX16_LtoS] (H-DDNTSYHRGFTED-OH; N-terminus and C-terminus assumed) | 
